Assay results as given in paper PMC11396129, “Oxindole–benzothiazole hybrids as CDK2 inhibitors and anticancer agents: design, synthesis and biological evaluation” (BMC Chemistry, 2024).

Key:
[1] = tested on: breast cancer; parameters: method as in PMID 16392802; details: cited from earlier work
[2] = target: T1, CDK2 (Homo sapiens, UniProt P24941); details: read-out: CDK2 inhibitory activity IC50; cited from earlier work
T1 construct: purchased BPS Biosciences 79599

For `COc1ccc(-c2nc3cc(F)ccc3s2)cc1OC` [GW 610 (VII), 2-(3,4-dimethoxyphenyl)-5-fluorobenzothiazole], the “growth inhibitory activity in vitro” value [1] is listed as “sub-nanomolar”.
In the case of `O=C1Nc2ccccc2/C1=C1/Nc2ccccc2/C1=N\O` [indirubin-3′-oxime (IV), indirubin-3′-oxime], the IC50 [2] is given as 440 nM.
In the case of `O=C(COc1ccccc1-c1nc2ccccc2s1)NN=C1C(=O)Nc2ccc([N+](=O)[O-])cc21` [Compound 9d, 2-(2-(Benzo[d]thiazol-2-yl)phenoxy)-N′-(5-nitro-2-oxoindolin-3-ylidene)acetohydrazide], the melting point is reported as 275 to 277 °C.
